Measured values: ChEMBL document CHEMBL1148503, “Evaluation of the eutomer of 4-{3-(4-chlorophenyl)-3-hydroxypyrrolidin-1-yl}-1-(4-fluorophenyl)butan-1-one, {(+)-SYA 09}, a pyrrolidine analog of haloperidol” (Bioorg Med Chem Lett, 2006)

Experiments:
[1] = target: T1, Alpha-1A adrenergic receptor (Homo sapiens, UniProt P35348); assay: Binding affinity to human cloned adrenergic alpha-1A receptor by radioligand binding assay
T1 sequence (P35348 whole entry): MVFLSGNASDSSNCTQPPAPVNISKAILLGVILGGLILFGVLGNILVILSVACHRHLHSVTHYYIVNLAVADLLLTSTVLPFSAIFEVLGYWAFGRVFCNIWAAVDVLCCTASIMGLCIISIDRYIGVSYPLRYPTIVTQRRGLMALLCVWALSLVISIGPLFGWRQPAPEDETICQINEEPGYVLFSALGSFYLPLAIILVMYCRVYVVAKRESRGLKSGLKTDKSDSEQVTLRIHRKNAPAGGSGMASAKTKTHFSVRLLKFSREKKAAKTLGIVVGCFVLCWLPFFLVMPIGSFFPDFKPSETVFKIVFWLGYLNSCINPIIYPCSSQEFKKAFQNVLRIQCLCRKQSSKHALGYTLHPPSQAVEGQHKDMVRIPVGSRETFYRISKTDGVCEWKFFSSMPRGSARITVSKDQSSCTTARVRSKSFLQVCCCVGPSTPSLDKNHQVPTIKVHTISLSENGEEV

[2] = target: T2, Alpha-2A adrenergic receptor (Homo sapiens, UniProt P08913); assay: Binding affinity to human cloned adrenergic alpha-2A receptor by radioligand binding assay
T2 sequence (P08913 whole entry): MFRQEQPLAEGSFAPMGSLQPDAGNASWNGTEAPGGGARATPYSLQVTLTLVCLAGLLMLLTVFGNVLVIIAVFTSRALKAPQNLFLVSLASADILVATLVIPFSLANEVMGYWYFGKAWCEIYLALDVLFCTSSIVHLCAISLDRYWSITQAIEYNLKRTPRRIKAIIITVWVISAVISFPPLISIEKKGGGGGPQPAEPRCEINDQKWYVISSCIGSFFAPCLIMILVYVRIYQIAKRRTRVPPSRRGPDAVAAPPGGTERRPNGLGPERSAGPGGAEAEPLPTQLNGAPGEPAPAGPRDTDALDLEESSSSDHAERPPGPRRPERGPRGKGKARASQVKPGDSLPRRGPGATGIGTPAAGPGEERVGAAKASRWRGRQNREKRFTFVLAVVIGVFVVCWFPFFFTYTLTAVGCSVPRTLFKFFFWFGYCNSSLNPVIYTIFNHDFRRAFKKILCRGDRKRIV

[3] = target: T3, Alpha-2C adrenergic receptor (Homo sapiens, UniProt P18825); assay: Binding affinity to human cloned adrenergic alpha-2C receptor by radioligand binding assay
T3 sequence (P18825 whole entry): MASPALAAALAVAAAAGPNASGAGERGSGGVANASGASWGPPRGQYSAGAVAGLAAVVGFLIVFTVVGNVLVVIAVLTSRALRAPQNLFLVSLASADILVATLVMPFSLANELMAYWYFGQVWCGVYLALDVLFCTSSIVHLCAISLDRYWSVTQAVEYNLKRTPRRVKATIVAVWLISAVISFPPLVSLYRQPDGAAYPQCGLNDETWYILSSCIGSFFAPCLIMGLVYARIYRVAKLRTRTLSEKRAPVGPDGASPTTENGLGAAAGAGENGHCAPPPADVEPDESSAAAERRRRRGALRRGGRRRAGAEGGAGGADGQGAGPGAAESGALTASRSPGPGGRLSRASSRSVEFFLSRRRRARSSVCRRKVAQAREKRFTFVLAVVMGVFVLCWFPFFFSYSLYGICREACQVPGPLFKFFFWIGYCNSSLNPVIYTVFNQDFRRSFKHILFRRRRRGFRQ

[4] = target: T4, Alpha-1B adrenergic receptor (Homo sapiens, UniProt P35368); assay: Binding affinity to human cloned adrenergic alpha-1B receptor by radioligand binding assay
T4 sequence (P35368 whole entry): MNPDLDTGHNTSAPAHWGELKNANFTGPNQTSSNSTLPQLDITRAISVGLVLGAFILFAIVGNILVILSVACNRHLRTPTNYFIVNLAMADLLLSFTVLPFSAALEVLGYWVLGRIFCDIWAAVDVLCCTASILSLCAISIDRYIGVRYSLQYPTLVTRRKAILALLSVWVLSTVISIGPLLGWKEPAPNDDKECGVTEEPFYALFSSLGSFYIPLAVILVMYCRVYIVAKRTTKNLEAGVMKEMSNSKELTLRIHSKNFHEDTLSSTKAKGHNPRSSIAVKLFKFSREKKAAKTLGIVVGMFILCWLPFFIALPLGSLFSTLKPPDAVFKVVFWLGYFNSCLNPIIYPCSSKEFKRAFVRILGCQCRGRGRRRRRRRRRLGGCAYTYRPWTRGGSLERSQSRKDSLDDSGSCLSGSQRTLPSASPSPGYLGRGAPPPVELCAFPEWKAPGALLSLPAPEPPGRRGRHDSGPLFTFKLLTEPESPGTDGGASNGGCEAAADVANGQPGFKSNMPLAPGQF

[5] = target: T5, Alpha-2B adrenergic receptor (Homo sapiens, UniProt P18089); assay: Binding affinity to human cloned adrenergic alpha-2B receptor by radioligand binding assay
T5 sequence (P18089 whole entry): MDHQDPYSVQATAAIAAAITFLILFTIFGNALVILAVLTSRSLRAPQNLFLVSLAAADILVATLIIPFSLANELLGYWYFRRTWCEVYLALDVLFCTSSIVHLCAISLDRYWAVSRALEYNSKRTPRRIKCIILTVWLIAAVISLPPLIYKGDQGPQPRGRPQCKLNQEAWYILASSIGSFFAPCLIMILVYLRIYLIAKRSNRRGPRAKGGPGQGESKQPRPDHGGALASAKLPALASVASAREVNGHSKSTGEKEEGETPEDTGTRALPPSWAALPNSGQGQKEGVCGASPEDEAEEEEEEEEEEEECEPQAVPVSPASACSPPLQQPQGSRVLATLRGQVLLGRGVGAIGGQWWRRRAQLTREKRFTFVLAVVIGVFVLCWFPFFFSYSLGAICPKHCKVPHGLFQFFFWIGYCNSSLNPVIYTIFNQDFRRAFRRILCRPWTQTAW

[6] = target: T6, 5-hydroxytryptamine receptor 1A (Homo sapiens, UniProt P08908); assay: Binding affinity to human cloned 5HT1A receptor by radioligand binding assay
T6 sequence (P08908 whole entry): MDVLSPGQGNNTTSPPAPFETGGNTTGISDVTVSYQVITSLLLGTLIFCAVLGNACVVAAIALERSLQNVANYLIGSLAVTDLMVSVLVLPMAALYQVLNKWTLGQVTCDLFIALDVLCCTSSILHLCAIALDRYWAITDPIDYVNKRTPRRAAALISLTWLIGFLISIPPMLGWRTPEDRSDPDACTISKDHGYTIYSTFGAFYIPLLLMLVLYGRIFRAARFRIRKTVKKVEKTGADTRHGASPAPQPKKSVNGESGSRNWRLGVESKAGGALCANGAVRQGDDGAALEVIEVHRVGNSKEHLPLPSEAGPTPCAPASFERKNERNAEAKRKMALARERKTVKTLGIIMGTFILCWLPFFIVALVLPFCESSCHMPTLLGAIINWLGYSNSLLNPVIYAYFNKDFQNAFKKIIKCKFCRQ

[7] = target: T7, 5-hydroxytryptamine receptor 2C (Homo sapiens, UniProt P28335); assay: Binding affinity to human cloned 5HT2C receptor by radioligand binding assay
T7 sequence (P28335 whole entry): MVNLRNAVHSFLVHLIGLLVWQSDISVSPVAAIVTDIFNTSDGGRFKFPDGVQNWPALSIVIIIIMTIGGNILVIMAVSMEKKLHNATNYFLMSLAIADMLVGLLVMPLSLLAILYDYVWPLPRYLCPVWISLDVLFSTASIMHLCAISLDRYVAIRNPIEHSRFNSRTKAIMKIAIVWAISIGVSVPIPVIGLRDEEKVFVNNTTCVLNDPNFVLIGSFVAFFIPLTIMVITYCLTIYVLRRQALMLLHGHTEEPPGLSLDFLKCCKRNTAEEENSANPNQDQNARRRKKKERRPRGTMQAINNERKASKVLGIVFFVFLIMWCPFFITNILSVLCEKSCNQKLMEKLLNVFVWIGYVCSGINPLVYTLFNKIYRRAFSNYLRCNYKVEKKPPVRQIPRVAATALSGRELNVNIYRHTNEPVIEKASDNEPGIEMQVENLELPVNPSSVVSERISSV

Mus musculus = assay: Inhibition of apomorphine-induced climbing in ip dosed Swiss Webster mouse; assay type: functional

Ki [1] | Ki [4] | Ki [6] | Ki [7] | Compound | Ki [2] | Ki [3] | Ki [5] | ED50 (Mus musculus)
115 nM | 102 nM | 722 nM | 3600 nM | O=C(CCCN1CCC(O)(c2ccc(Cl)cc2)C1)c1ccc(F)cc1 (single isomer, unassigned; (+)) | – | – | – | 1.6 mg/kg
34 nM | 41.7 nM | 832 nM | 1250 nM | O=C(CCCN1CCC(O)(c2ccc(Cl)cc2)C1)c1ccc(F)cc1 (stereo in doubt; 2b) | – | – | – | –
– | – | – | – | CN1CCN(C2=Nc3cc(Cl)ccc3Nc3ccccc32)CC1 [CLOZAPINE] | – | – | – | 5.54 mg/kg
– | – | – | – | O=C(CCCN1CCC(O)(c2ccc(Cl)cc2)CC1)c1ccc(F)cc1 [HALOPERIDOL] | – | – | – | 0.007 mg/kg

Compound | Ki [1] | Ki [4] | Ki [6] | Ki [7] | Ki [2] | Ki [3] | Ki [5] | ED50 (Mus musculus)
O=C(CCCN1C2CCC1CC(O)(c1ccc(Cl)cc1)C2)c1ccc(F)cc1 (stereo unspecified) | 39.3 nM | 42.7 nM | – | – | 2830 nM | 143 nM | 516 nM | –
